# Earlier results, collected in US9040513B2, “Process for preparing platinum-carbene complexes” (CENTRE NATIONAL DE LA RECHERCHE SCIENTIFIQUE, priority 2010, dated 2015).
# Target: integrin αvβ3 (Homo sapiens, UniProt P05106+P06756)
# Settings: background statement
# Sequence of integrin αvβ3 (P06756 31-889 limits assumed): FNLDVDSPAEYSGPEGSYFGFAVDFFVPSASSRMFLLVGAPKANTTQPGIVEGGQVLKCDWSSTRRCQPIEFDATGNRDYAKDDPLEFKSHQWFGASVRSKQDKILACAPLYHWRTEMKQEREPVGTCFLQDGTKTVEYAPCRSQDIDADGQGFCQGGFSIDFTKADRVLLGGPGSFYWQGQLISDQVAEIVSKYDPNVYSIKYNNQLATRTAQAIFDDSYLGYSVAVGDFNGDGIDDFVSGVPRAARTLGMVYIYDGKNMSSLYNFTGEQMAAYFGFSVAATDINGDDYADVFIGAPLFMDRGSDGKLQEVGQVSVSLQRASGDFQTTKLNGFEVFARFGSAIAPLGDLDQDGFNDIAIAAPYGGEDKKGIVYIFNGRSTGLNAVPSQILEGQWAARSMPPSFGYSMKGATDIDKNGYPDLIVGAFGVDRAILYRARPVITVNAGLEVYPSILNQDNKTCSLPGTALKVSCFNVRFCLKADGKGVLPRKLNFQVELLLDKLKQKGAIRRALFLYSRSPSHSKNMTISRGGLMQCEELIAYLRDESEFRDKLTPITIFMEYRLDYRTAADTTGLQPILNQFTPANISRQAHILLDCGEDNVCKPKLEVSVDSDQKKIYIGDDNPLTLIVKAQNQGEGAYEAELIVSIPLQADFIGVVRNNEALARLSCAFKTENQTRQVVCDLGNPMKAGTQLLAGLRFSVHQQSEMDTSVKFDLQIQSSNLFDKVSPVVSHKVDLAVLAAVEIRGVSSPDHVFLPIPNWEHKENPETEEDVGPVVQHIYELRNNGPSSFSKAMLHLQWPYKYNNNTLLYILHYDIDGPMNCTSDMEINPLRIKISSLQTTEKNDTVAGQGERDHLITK
# Sequence of integrin αvβ3 (P06756 891-1048 partner limits assumed): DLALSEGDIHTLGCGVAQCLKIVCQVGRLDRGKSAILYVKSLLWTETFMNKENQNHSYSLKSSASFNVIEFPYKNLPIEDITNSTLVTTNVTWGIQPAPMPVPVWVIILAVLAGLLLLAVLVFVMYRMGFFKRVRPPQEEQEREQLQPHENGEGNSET
# Sequence of integrin αvβ3 (P05106 27-788): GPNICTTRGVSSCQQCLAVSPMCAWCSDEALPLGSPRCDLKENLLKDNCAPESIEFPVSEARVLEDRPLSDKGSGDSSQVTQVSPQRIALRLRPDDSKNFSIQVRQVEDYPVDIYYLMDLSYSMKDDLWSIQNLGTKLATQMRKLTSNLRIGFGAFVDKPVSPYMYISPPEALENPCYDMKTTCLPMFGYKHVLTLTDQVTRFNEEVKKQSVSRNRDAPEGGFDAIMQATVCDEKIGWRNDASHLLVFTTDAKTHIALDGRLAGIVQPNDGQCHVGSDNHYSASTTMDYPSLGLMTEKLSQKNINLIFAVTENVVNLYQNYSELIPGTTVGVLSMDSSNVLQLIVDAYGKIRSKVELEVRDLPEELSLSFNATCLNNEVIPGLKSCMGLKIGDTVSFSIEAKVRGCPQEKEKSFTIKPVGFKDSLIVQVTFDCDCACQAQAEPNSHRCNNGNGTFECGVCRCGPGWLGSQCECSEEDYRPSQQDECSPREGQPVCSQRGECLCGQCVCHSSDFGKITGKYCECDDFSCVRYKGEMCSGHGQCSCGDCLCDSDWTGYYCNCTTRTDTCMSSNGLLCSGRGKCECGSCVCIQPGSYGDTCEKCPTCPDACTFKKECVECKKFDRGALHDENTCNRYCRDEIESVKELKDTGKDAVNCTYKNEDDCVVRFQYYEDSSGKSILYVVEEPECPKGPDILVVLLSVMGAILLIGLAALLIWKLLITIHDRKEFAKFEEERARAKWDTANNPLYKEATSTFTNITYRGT
substance,measurement,value
cyclo(RGDfK),affinity for integrin αvβ3,high affinity
